In patent publication US10597388B2, “Pyridazinone herbicides” (FMC CORPORATION, priority 2014, dated 2020):

Key:
Assay type in all cases: in vivo
[1] = tested on: barnyardgrass (Echinochloa crus-galli); experiment: Test B flooded paddy test; settings: 250 g ai/ha, Flood; visual rating on scale of 0 to 100 where 0 is no effect and 100 is complete control; 13 to 15 d after treatment
In short: (§1)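 Plants at the 2-leaf stage were flooded to 3 cm above soil, and test compounds were applied directly into the paddy water, which was held at that depth throughout. After 13 to 15 d in a greenhouse, injury was rated visually against untreated controls on a 0–100 scale (0 no effect, 100 complete control).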

[2] = tested on: sedge, umbrella (small-flower umbrella sedge, Cyperus difformis); experiment: Test B flooded paddy test; settings: 250 g ai/ha, Flood; visual rating on scale of 0 to 100 where 0 is no effect and 100 is complete control; 13 to 15 d after treatment
In short: as §1

[3] = tested on: ducksalad (Heteranthera limosa); experiment: Test B flooded paddy test; settings: 250 g ai/ha, Flood; visual rating on scale of 0 to 100 where 0 is no effect and 100 is complete control; 13 to 15 d after treatment
In short: as §1

rice (Oryza sativa) = experiment: Test B flooded paddy test; settings: 250 g ai/ha, Flood; visual rating on scale of 0 to 100 where 0 is no effect and 100 is complete control; 13 to 15 d after treatment
In short: as §1

[4] = tested on: blackgrass (Alopecurus myosuroides); experiment: Test A greenhouse herbicide test, postemergence
In short: (§2)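 Greenhouse postemergence test: formulated chemicals sprayed on one- to two-leaf plants (2 to 10 cm), grown in loam soil blended with sand. Injury assessed visually about 10 d later against untreated controls, scored 0 (no effect) to 100 (complete control).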

[5] = tested on: galium (catchweed bedstraw, Galium aparine); experiment: Test A greenhouse herbicide test, postemergence
In short: as §2

[6] = tested on: wheat (Triticum aestivum); experiment: Test A greenhouse herbicide test, pre- and postemergence; settings: Postemergence
Excerpt: (§3) Seeds of plant species selected from barnyardgrass (Echinochloa crus-galli), kochia (Kochia scoparia), ragweed (common ragweed, Ambrosia elatior), ryegrass, Italian (Italian ryegrass, Lolium multiflorum), crabgrass, large (large crabgrass, Digitaria sanguinalis), foxtail, giant (giant foxtail, Setaria faberii), momingglory (Ipomoea spp.), pigweed (Amaranthus retroflexus), velvetleaf (Abutilon theophrasti), wheat (Triticum aestivum), and corn (Zea mays) were planted into a blend of loam soil and sand and treated preemergence with a directed soil spray using test chemicals formulated in a non-phytotoxic solvent mixture which included a surfactant.
(§4) At the same time, plants selected from these crop and weed species and also blackgrass (Alopecurus myosuroides), and galium (catchweed bedstraw, Galium aparine) were planted in pots containing the same blend of loam soil and sand and treated with postemergence applications of test chemicals formulated in the same manner. Plants ranged in height from 2 to 10 cm and were in the one- to two-leaf stage for the postemergence treatment. Treated plants and untreated controls were maintained in a greenhouse for approximately 10 d, after which time all treated plants were compared to untreated controls and visually evaluated for injury. Plant response ratings, summarized in Table A, are based on a 0 to 100 scale where 0 is no effect and 100 is complete control. A dash (-) response means no test result.

corn (Zea mays) = experiment: as above; settings: Postemergence
Excerpt: as §3, §4

[7] = tested on: ragweed (common ragweed, Ambrosia elatior); experiment: as above
Excerpt: as §3, §4

[8] = tested on: barnyardgrass (Echinochloa crus-galli); experiment: as above
Excerpt: as §3, §4

[9] = tested on: pigweed (Amaranthus retroflexus); experiment: as above
Excerpt: as §3, §4

[10] = tested on: ryegrass, Italian (Italian ryegrass, Lolium multiflorum); experiment: as above
Excerpt: as §3, §4

kochia (Kochia scoparia) = experiment: as above
Excerpt: as §3, §4

[11] = tested on: foxtail, giant (giant foxtail, Setaria faberii); experiment: as above
Excerpt: as §3, §4

[12] = 125 g ai/ha, 0 to 100 scale, 0 no effect, 100 complete control
[13] = 500 g ai/ha, visual rating after approx. 10 d, 0 to 100 scale (0 no effect, 100 complete control)
[14] = Postemergence, 125 g ai/ha, 0 to 100 scale, 0 no effect, 100 complete control
[15] = Postemergence, 500 g ai/ha, visual rating after approx. 10 d, 0 to 100 scale (0 no effect, 100 complete control)
[16] = Preemergence, 500 g ai/ha, 0 to 100 scale where 0 is no effect and 100 is complete control
[17] = Preemergence, second run of lines under the 500 g ai/ha head, rate not given, 0 to 100 scale
[18] = Preemergence, 125 g ai/ha, visual injury rating, 0 to 100 scale (0 no effect, 100 complete control), approx. 10 d
[19] = 125 g ai/ha, 0 to 100 scale where 0 is no effect and 100 is complete control
[20] = 500 g ai/ha, 0 to 100 scale, 0 is no effect, 100 is complete control
[21] = Postemergence, 125 g ai/ha, 0 to 100 scale where 0 is no effect and 100 is complete control
[22] = Postemergence, 500 g ai/ha, 0 to 100 scale, 0 is no effect, 100 is complete control
[23] = Preemergence, 125 g ai/ha, 0 to 100 scale where 0 is no effect and 100 is complete control
[24] = Preemergence, 500 g ai/ha, 0 to 100 scale, 0 no effect, 100 complete control

Compound: Cc1nn(C)c(=O)c(-c2ccc(Cl)c3ccccc23)c1OP(C)(C)=O [Compound 187]
- Plant response rating, Barnyardgrass [1]: 0
- Plant response rating, Sedge, Umbrella [2]: 0
- Plant response rating, Ducksalad [3]: 0
- Plant response rating, Rice (rice (Oryza sativa)): 20
- Plant response rating, Blackgrass [4, 12]: 40
- Plant response rating, Blackgrass [4, 13]: 70
- Plant response rating, Galium [5, 12]: 90
- Plant response rating, Galium [5, 13]: 100
- Plant response rating, Wheat [6, 12]: 0
- Plant response rating, Wheat [6, 13]: 30
- Plant response rating, Corn (corn (Zea mays); [12]): 0
- Plant response rating, Corn (corn (Zea mays); [13]): 30
- Plant response rating, Ragweed [7, 14]: 100
- Plant response rating, Ragweed [7, 15]: 100
- Plant response rating, Ragweed [7, 16]: 80
- Plant response rating, Ragweed [7, 17]: 70
- Plant response rating, Barnyardgrass [8, 14]: 30
- Plant response rating, Barnyardgrass [8, 15]: 80
- Plant response rating, Barnyardgrass [8, 16]: 90
- Plant response rating, Barnyardgrass [8, 17]: 70
- Plant response rating, Pigweed [9, 14]: 70
- Plant response rating, Pigweed [9, 15]: 90
- Plant response rating, Pigweed [9, 16]: 100
- Plant response rating, Pigweed [9, 17]: 90
- Plant response rating, Ryegrass, Italian [10, 14]: 100
- Plant response rating, Ryegrass, Italian [10, 15]: 100
- Plant response rating, Ryegrass, Italian [10, 16]: 100
- Plant response rating, Ryegrass, Italian [10, 17]: 100
- Plant response rating, Kochia (kochia (Kochia scoparia); [14]): 90
- Plant response rating, Kochia (kochia (Kochia scoparia); [15]): 100
- Plant response rating, Kochia (kochia (Kochia scoparia); [16]): 100
- Plant response rating, Kochia (kochia (Kochia scoparia); [17]): 60
- Plant response rating, Foxtail, Giant [11, 14]: 50
- Plant response rating, Foxtail, Giant [11, 15]: 80
- Plant response rating, Foxtail, Giant [11, 16]: 70
- Plant response rating, Foxtail, Giant [11, 17]: 20

Compound: Cc1ccc2ccccc2c1-c1c(O)c([N+](=O)[O-])nn(C)c1=O [Compound 177]
- Plant response rating, Barnyardgrass [1]: 0
- Plant response rating, Sedge, Umbrella [2]: 0
- Plant response rating, Ducksalad [3]: 0
- Plant response rating, Rice (rice (Oryza sativa)): 0
- Plant response rating, Blackgrass [4, 12]: 0
- Plant response rating, Blackgrass [4, 13]: 0
- Plant response rating, Galium [5, 12]: 0
- Plant response rating, Galium [5, 13]: 0
- Plant response rating, Wheat [6, 12]: 0
- Plant response rating, Wheat [6, 13]: 0
- Plant response rating, Corn (corn (Zea mays); [12]): 0
- Plant response rating, Corn (corn (Zea mays); [13]): 0
- Plant response rating, Ragweed [7, 14]: 0
- Plant response rating, Ragweed [7, 15]: 0
- Plant response rating, Ragweed [7, 18]: 0
- Plant response rating, Ragweed [7, 16]: 0
- Plant response rating, Barnyardgrass [8, 14]: 0
- Plant response rating, Barnyardgrass [8, 15]: 0
- Plant response rating, Barnyardgrass [8, 18]: 0
- Plant response rating, Barnyardgrass [8, 16]: 0
- Plant response rating, Pigweed [9, 14]: 0
- Plant response rating, Pigweed [9, 15]: 0
- Plant response rating, Pigweed [9, 18]: 0
- Plant response rating, Pigweed [9, 16]: 0
- Plant response rating, Ryegrass, Italian [10, 14]: 0
- Plant response rating, Ryegrass, Italian [10, 15]: 0
- Plant response rating, Ryegrass, Italian [10, 18]: 0
- Plant response rating, Ryegrass, Italian [10, 16]: 0
- Plant response rating, Kochia (kochia (Kochia scoparia); [14]): 0
- Plant response rating, Kochia (kochia (Kochia scoparia); [15]): 0
- Plant response rating, Kochia (kochia (Kochia scoparia); [18]): 0
- Plant response rating, Kochia (kochia (Kochia scoparia); [16]): 0
- Plant response rating, Foxtail, Giant [11, 14]: 0
- Plant response rating, Foxtail, Giant [11, 15]: 0
- Plant response rating, Foxtail, Giant [11, 18]: 0
- Plant response rating, Foxtail, Giant [11, 16]: 0

Compound: Cc1cc(C)c2sc(C)c(-c3c(OC(=O)C(C)(C)C)c(C)nn(C)c3=O)c2c1 [Compound 43]
- Plant response rating, Barnyardgrass [1]: 0
- Plant response rating, Sedge, Umbrella [2]: 0
- Plant response rating, Ducksalad [3]: 0
- Plant response rating, Rice (rice (Oryza sativa)): 0
- Plant response rating, Blackgrass [4, 19]: 30
- Blackgrass plant response rating [4, 20]: 80
- Plant response rating, Galium [5, 19]: 50
- Galium plant response rating [5, 20]: 90
- Plant response rating, Wheat [6, 19]: 0
- Wheat plant response rating [6, 20]: 0
- Plant response rating, Corn (corn (Zea mays); [19]): 0
- Corn plant response rating (corn (Zea mays); [20]): 0
- Plant response rating, Ragweed [7, 21]: 0
- Ragweed plant response rating [7, 22]: 0
- Ragweed plant response rating [7, 23]: 0
- Plant response rating, Ragweed [7, 24]: 10
- Plant response rating, Barnyardgrass [8, 21]: 0
- Barnyardgrass plant response rating [8, 22]: 30
- Barnyardgrass plant response rating [8, 23]: 0
- Plant response rating, Barnyardgrass [8, 24]: 10
- Plant response rating, Pigweed [9, 21]: 0
- Pigweed plant response rating [9, 22]: 10
- Pigweed plant response rating [9, 23]: 0
- Plant response rating, Pigweed [9, 24]: 10
- Plant response rating, Ryegrass, Italian [10, 21]: 40
- Ryegrass, Italian plant response rating [10, 22]: 60
- Ryegrass, Italian plant response rating [10, 23]: 10
- Plant response rating, Ryegrass, Italian [10, 24]: 70
- Plant response rating, Kochia (kochia (Kochia scoparia); [21]): 0
- Kochia plant response rating (kochia (Kochia scoparia); [22]): 10
- Kochia plant response rating (kochia (Kochia scoparia); [23]): 50
- Plant response rating, Kochia (kochia (Kochia scoparia); [24]): 20
- Plant response rating, Foxtail, Giant [11, 21]: 0
- Foxtail, Giant plant response rating [11, 22]: 70
- Foxtail, Giant plant response rating [11, 23]: 0
- Plant response rating, Foxtail, Giant [11, 24]: 50
